Source: US12486303B2, “Use of peptide for inhibiting functions and expressions of multiple disease biomarkers” (NIBEC CO., LTD., priority 2018, dated 2025)

Columns and labels:
HDAC5 = experiment: Phospho explorer antibody microarray of LPS-treated RAW 264.7 cells: HDAC5; format: cell-based; settings: 200 μM peptide 1 hour then LPS 1 μg/mL 30 minutes, compared to cells treated with only LPS
Description: (§1) RAW 264.7 cells were starved in 0.5% FBS for 2 hours and treated with 200 μM of the peptide of SEQ ID NO: 1 for 1 hour, and then inflammation was induced at 37° C. for 30 minutes with LPS (1 μg/mL). Cell lysates of untreated cells (NT), cells treated with LPS, and cells treated with SEQ ID NO: 1 and LPS were applied to a Phospho explorer antibody microarray from Full Moon Biosystems. The phospho microarray is capable of recognizing 1318 antibodies related to 30 signaling systems. A standard-size coated glass microscope slide was coated with each antibody. =It was scanned with a GenePix 4100A scanner (Axon Instrument, Foster City, CA, USA). Data were analyzed with Genowiz 4.0™ (Ocimum Biosolutions, Hyderabad, India). The phosphorylation ratio was calculated as follows.
(§2) Formula for calculating phosphorylation ratio in each antibody: Phosphorylation ratio=(phosphorylation value of experimental group/non-phosphorylation value of experimental group)/(phosphorylation value of control group/non-phosphorylation value of control group)

[1] = tested on: high-fat diet C57BL/6 mice; experiment: Non-alcoholic hepatitis animal model induced by high-fat diet; format: in vivo; settings: 7 weeks, peptide 15 or 30 mg/kg
Description: In order to determine whether or not the peptide according to the present invention has the effect of treating hepatitis and inhibiting obesity in vivo, a non-alcoholic hepatitis animal model induced by a high-fat diet was used. Male C57BL/6 mice (7 weeks old) were acclimated for 1 week and a total of 20 animals were divided into four experimental groups (n=5 per group), namely, a normal diet group (control), a high-fat diet group (DIO: HFD-induced obesity), a group injected with a low dose of the peptide of SEQ ID NO: 1 (LD SEQ ID NO: 1, 15 mg/kg) and a group injected with a high dose of the peptide of SEQ ID NO: 1 (HD SEQ ID NO: 1, 30 mg/kg), and were reared with the high-fat diet or the normal diet for 7 weeks. The high-fat diet was a 60% high-fat diet (Dyets, Inc). During 7 weeks of rearing, body weight and feed intake were measured twice a week. On the 50th day after 7 weeks of rearing, the animals were sacrificed, and liver and adipose tissues were collected and sized.

NF-κB p100/p52 = experiment: Phospho explorer antibody microarray of LPS-treated RAW 264.7 cells: NF-κB p100/p52; format: cell-based; settings: 200 μM peptide 1 hour then LPS 1 μg/mL 30 minutes, compared to cells treated with only LPS
Description: as §1, §2

[2] = tested on: collagen-induced arthritis (CIA) rats; experiment: Collagen-induced arthritis animal model; format: in vivo, Wistar rats; settings: for Hind paw swelling inhibition (%): 38th day
Description: In order to determine whether or not the peptide according to the present invention is effective in treating rheumatoid arthritis in vivo, the effect of treating arthritis thereof was detected in a collagen-induced arthritis animal model. For this purpose, female Wistar rats (105-135 g, n=67) were purchased from Harlan Co. Ltd. (Indianapolis, IN, USA). All rats were bred in a pathogen-free environment and sterilized standard rat feed (Harlan Co. Ltd, USA) and water were freely fed to the rats. Animal experiments were conducted with the approval of the Institutional Animal Care and Use Committee (IACUC) of Seoul National University. Collagen-induced arthritis was induced in a known manner (Nishikawa et al., Arthritis and rheumatism. 2003; 48:2670-81).
Specifically, 500 μg of bovine collagen type II was injected along with a mixture of 0.5 mL of 0.1 M acetic acid and 0.5 mL of Freund's incomplete adjuvant into rat muscle. On the 7th day, 0.5 mL of 0.1 M acetic acid and 0.5 mL of Freund's incomplete adjuvant were further inoculated along with 250 μg of bovine collagen type II to produce collagen-induced arthritis (CIA) rats. The rats were classified into a CIA-induced group (n=10), a CIA-induced group injected with a low concentration of the peptide of SEQ ID NO: 1 (LD AIP, 15 mg/kg, n=10), a CIA-induced group injected with a high concentration of the peptide of SEQ ID NO: 1 (HD AIP, 30 mg/kg, n=10), a CIA-induced group injected with etanercept (Enbrel) (10 mg/kg, n=10), and a normal group (n=6). From 28 days after the first collagen injection, the peptide of SEQ ID NO: 1 was injected subcutaneously into the back of the neck twice a week over 4 weeks. Etanercept was injected intraperitoneally three times a week over 4 weeks. Swelling of both hind paws was measured twice using a plethysmometer (LE7500 N, IWOO Scientific Corporation, KOREA) on day 22, 29, 31, 35, 38, 42, 45, 49, 52, and 56. The plethysmometer was used after calibration to a weight of 3 mL. The measured area was marked by drawing a line, and measurement was conducted adjacent to the ankle. Hind paw swelling increase (%) and hind paw swelling inhibition (%) were calculated using the following equations.
In order to observe the degree of bone damage in the hind paw, microcomputed tomography (micro-CT) was performed using a SkyScan 1172 (SkyScan, Aartselaar, Belgium). The total volume (TV; mm^3), bone volume (BV; mm^3) and bone volume fraction (BV/TV; %) were analyzed using CTAn software. On the 57th day, rats were sacrificed and subjected to histological analysis. Both hind paws and joints were collected, fixed in 10% buffered formalin, and demineralized in 30% citrate-buffered formic acid at 4° ° C. for 3 days. Paraffin blocks were produced, sliced into sections with a thickness of 4 μm and stained with hematoxylin and eosin (H&E), and then the pathological score was evaluated with an optical microscope. The joint inflammation index was measured based on the following criteria (Shiozawa et al., J Clin Invest. 1997; 99 (6):1210-1216). 0, normal synovium; 1, synovial membrane hypertrophy and cell infiltrates; 2, pannus and cartilage erosion; 3, major erosion of cartilage and subchondral bone; and 4, loss of joint integrity and ankylosis.
The rats were sacrificed and systemic blood was collected, and the concentrations of TNF-α and IL-6 in the blood were measured with an ELISA kit (R&D, Minneapolis, MN, USA).

IκBα = experiment: Phospho explorer antibody microarray of LPS-treated RAW 264.7 cells: IκBα; format: cell-based; settings: 200 μM peptide 1 hour then LPS 1 μg/mL 30 minutes, compared to cells treated with only LPS
Description: as §1, §2

C[C@@H](O)[C@H](NC(=O)[C@H](CO)NC(=O)[C@H](CS)NC(=O)[C@H](CCCCN)NC(=O)CN)C(=O)N[C@@H](CCCNC(=N)N)C(=O)NCC(=O)N[C@@H](CCCNC(=N)N)C(=O)N[C@@H](CCCCN)C(=O)N[C@@H](CS)C(=O)N[C@@H](CS)C(=O)N[C@@H](CCCNC(=N)N)C(=O)N[C@@H](CCCNC(=N)N)C(=O)N[C@@H](CCCCN)C(=O)N[C@@H](CCCCN)C(=O)O [SEQ ID NO: 1]
Phosphorylation ratio of HDAC5 (HDAC5): 0.278
Size of subcutaneous fat [1]: decreased
Size of the liver [1]: decreased
Phosphorylation ratio of NF-κB p100/p52 (NF-κB p100/p52): 0.451
Concentration of IL-6 in blood ([2]; ELISA, high concentration of peptide or etanercept, CIA-induced group 109 pg/ml): 35.2 pg/mL
Concentration of TNF-α in blood ([2]; ELISA, high concentration of peptide or etanercept, CIA-induced group 128 pg/ml): 40.3 pg/mL
Bone damage in hind paw (micro-CT) ([2]; FIG. 3A): bone tissue was preserved
Microscopic observation of joint tissues (inflammation, H&E) ([2]; FIG. 4A): decrease in inflammation in a concentration-dependent manner
Hind paw swelling inhibition (%) ([2]; high concentration (30 mg/kg)): 35%
Bone surface area adjusted to BV (BS/BV) ([2]; high concentration, micro-CT): low
Bone volume (BV) ([2]; high concentration, micro-CT): high
Bone volume/tissue volume (BV/TV) ([2]; high concentration, micro-CT): high
Trabecular thickness (Tb.Th) ([2]; high concentration, micro-CT): high
Hind paw swelling inhibition (%) ([2]; low concentration (15 mg/kg)): 32%
Hind paw swelling (%) ([2]; peptide 15 or 30 mg/kg subcutaneously twice a week, etanercept 10 mg/kg intraperitoneally three times a week, 4 weeks): decrease in hind paw swelling (%) in a concentration-dependent manner
Hind paw swelling (%) ([2]; peptide at high concentration (30 mg/kg)): decrease in hind paw swelling (%) between 38 and 49 days (P<0.05)
Inflammation index ([2]; score 0-4, CIA-induced group 3.3±0.67): 1.5±1.17
Phosphorylation ratio of IκBα (IκBα): 0.509
